Results reported in PubChem BioAssay (NCI).
Values joined by “and” are separate entries in the source; they are usually repeats but may differ in a detail not shown here. Equal values may be shown once.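 All cell lines were grown in 96-well plates and treated with compound for 48 hours. The concentration for 50% growth inhibition is given as GI50. TGI marks complete inhibition of growth.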

Tests used:
Assay in all cases: DTP human tumour cell line panel, 48 h
UACC-62 melanoma = system: UACC-62 melanoma
OVCAR-3 ovarian = system: OVCAR-3 ovarian
MOLT-4 leukemia = system: MOLT-4 leukemia
OVCAR-5 ovarian = system: OVCAR-5 ovarian
UO-31 renal = system: UO-31 renal
SK-MEL-5 melanoma = system: SK-MEL-5 melanoma
A498 renal = system: A498 renal
NCI-H522 lung = system: NCI-H522 lung
HOP-92 NSCLC = system: HOP-92 NSCLC
MALME-3M melanoma = system: MALME-3M melanoma

Structure (SMILES)	TGI (UACC-62 melanoma)	TGI (OVCAR-3 ovarian)	TGI (MOLT-4 leukemia)	TGI (OVCAR-5 ovarian)	TGI (UO-31 renal)	TGI (SK-MEL-5 melanoma)	TGI (A498 renal)	TGI (NCI-H522 lung)	TGI (HOP-92 NSCLC)	TGI (MALME-3M melanoma)	GI50 (UACC-62 melanoma)	GI50 (OVCAR-3 ovarian)	GI50 (MOLT-4 leukemia)	GI50 (OVCAR-5 ovarian)	GI50 (UO-31 renal)	GI50 (SK-MEL-5 melanoma)	GI50 (A498 renal)	GI50 (NCI-H522 lung)	GI50 (HOP-92 NSCLC)	GI50 (MALME-3M melanoma)
Cc1ccc(S(=O)(=O)N/N=C(\c2nc3ccc([N+](=O)[O-])cc3[nH]c2=O)C(O)c2ccccc2Cl)cc1 (configuration not stated)	> 100 µM	> 100 µM	> 100 µM	> 100 µM	> 100 µM	> 100 µM	> 100 µM	82.6 µM	> 100 µM	> 100 µM	–	–	–	–	–	–	–	–	–	–
O=C1C=C(O)c2[nH]c(=O)ccc2C1=O	> 100 µM	> 100 µM	> 100 µM	–	> 100 µM	> 100 µM	> 100 µM	> 100 µM	> 100 µM	> 100 µM	–	–	–	–	–	–	–	–	–	–
NC(=O)C1(N2CCCCC2)CCN(CCCC(=O)c2ccc(F)cc2)CC1	> 100 µM	1.58 µM	> 81.6 µM	> 100 µM	> 100 µM	12.6 µM	11.4 µM	–	51.4 µM	> 100 µM	0.219 µM	0.117 µM	1.16 µM	6.96 µM	17.2 µM	0.158 µM	2.72 µM	0.0965 µM	0.17 µM	0.264 µM
COc1ccccc1-c1cc(=O)c2ccc(C)nc2[nH]1	> 100 µM	> 100 µM	> 100 µM	> 100 µM	> 100 µM	> 100 µM	> 100 µM	> 100 µM	> 100 µM	> 100 µM	–	> 100 µM	–	–	–	51.6 µM	–	–	–	–
COc1ccc(Nc2nc3ccccc3nc2-c2cccs2)cc1	> 100 µM	> 100 µM	> 100 µM	> 100 µM	> 100 µM	> 100 µM	> 100 µM	> 100 µM	> 100 µM	> 100 µM	–	–	–	–	–	–	–	–	–	–
Cc1ccccc1Nc1nc2c(s1)C(=O)c1ccccc1C2=O	10.3 µM	5.31 µM	> 24.3 µM	38 µM	14.4 µM	7.12 µM	39.5 µM	7.52 µM	25.1 µM	28.2 µM	–	–	–	–	–	–	–	–	–	–
O=C(/C=C/c1ccccc1)CC(c1ccccc1)N1CCOCC1 (configuration not stated)	21.8 µM	11.6 µM	9.87 µM	22.1 µM	3.24 µM	17.5 µM	26.2 µM	20 µM	18.3 µM	19.9 µM	9.07 µM	3.71 µM	3.12 µM	9.79 µM	1.58 µM	4.87 µM	12.9 µM	4.1 µM	3.59 µM	4.4 µM
CC1(c2ccccc2)CC(c2ccccc2)=NO1 (configuration not stated)	> 100 µM	> 100 µM	> 100 µM	> 100 µM	> 100 µM	> 100 µM	> 100 µM	> 100 µM	> 100 µM	> 100 µM	–	–	–	–	–	–	–	–	–	–
Cc1ncc(C(=O)Nc2ccc(CN3CCN(C)CC3)c(C(F)(F)F)c2)cc1C#Cc1cnc(NC2CC2)c2ncccc12	2.38 µM	1.28 µM	1.17 µM	1.32 µM	1.19 µM	1.04 µM	5.56 µM	1.23 µM	2.08 µM	1.15 µM	0.874 µM	0.693 µM	0.519 µM	0.668 µM	0.675 µM	0.546 µM	1.78 µM	0.635 µM	0.682 µM	0.57 µM
CCN(CC)CCNC(=O)c1c(C)[nH]c(/C=C2\C(=O)Nc3ccc(F)cc32)c1C	> 10 µM and 6.98 µM and 10.9 µM	> 10 µM and 6.34 µM and 7.54 µM	> 10 µM and 20 µM and 9.05 µM	> 10 µM and 8.72 µM and 18.1 µM	> 10 µM and 4.59 µM and 8.07 µM	4.5 µM and 5.62 µM and 2.92 µM	> 10 µM and 4.83 µM and 15.4 µM	> 10 µM and 6.92 µM and 6.1 µM	9.01 µM and 3.05 µM	6.55 µM and 5.1 µM and 2.91 µM	> 10 µM and 3.26 µM and 4.12 µM	> 10 µM and 3.41 µM and 3.33 µM	1.1 µM and 2.73 µM and 1.7 µM	4.1 µM and 2.35 µM and 3.57 µM	0.629 µM and 1.26 µM and 1.29 µM	1.66 µM and 2.88 µM and 1.5 µM	> 10 µM and 2.21 µM and 2.84 µM	6.2 µM and 3.52 µM and 2.73 µM	0.831 µM and 0.439 µM	1.87 µM and 2.18 µM and 1.16 µM
CC(C)c1ccccc1NC(=O)/C(Cl)=C1/Sc2ccccc2NC1=O	> 100 µM	–	79.8 µM	> 100 µM	> 100 µM	78.8 µM	93.2 µM	51.8 µM	> 100 µM	80.7 µM	–	–	–	–	–	–	–	–	–	–
O=S1(=O)NCCCN1CCNc1nccc(-c2c(-c3cccc(O)c3)nc3sccn23)n1	5.66 µM	> 100 µM	> 77.6 µM	> 100 µM	> 96.6 µM	17.3 µM	45.9 µM	80.7 µM	> 93.5 µM	3.26 µM	0.0873 µM	19.4 µM	22.9 µM	49.8 µM	37 µM	1.71 µM	15.5 µM	14.6 µM	27.3 µM	0.108 µM
C=C1CC2(OC1=O)C(=O)N(CCCN1C(=O)C3(CC(=C)C(=O)O3)c3ccccc31)c1ccccc12 (configuration not stated)	3.11 µM	1.83 µM	1.93 µM	4.55 µM	2.97 µM	16.7 µM	17 µM	1.87 µM	2.76 µM	3.21 µM	1.54 µM	0.571 µM	0.419 µM	2.07 µM	1.53 µM	4.96 µM	3.12 µM	0.444 µM	1.33 µM	1.7 µM
CCCCCCCCCCCC[n+]1ccccc1 (tested in a mixture with another compound)	2.54 µM	2.44 µM	4.78 µM	5.85 µM	14.8 µM	1.36 µM	7.25 µM	5.42 µM	2.43 µM	2.77 µM	1.09 µM	0.722 µM	1.34 µM	1.03 µM	2.24 µM	0.342 µM	1.84 µM	0.855 µM	0.29 µM	0.633 µM
CCCCCCCCCCCCCCCCCCNC(=O)[C@H]1CSC(c2cccs2)N1 (some centres not stated)	1.69 µM	3.97 µM	15.7 µM	2.57 µM	> 50 µM	–	> 50 µM	> 50 µM	14.2 µM	2.01 µM	0.908 µM	1.48 µM	0.974 µM	1.17 µM	10.3 µM	–	> 50 µM	3.59 µM	2.38 µM	0.988 µM
